Km data for 1 compound are collected here from US4770997A, “Thermostable bilirubin oxidase and production process thereof” (Toyo Jozo Co., Ltd., priority 1985, dated 1988).

The test system of experiment [1] is Bacillus licheniformis B-0891 (FERM BP-952) bilirubin oxidase (Invention Sample). Put plainly: Km value of the thermostable bilirubin oxidase of this invention. Type of experiment: biochemical. The settings on record: at pH 8.0; substrate bilirubin. The procedure:
A reaction mixture (1.49 ml) of the above composition was placed in a small test tube. After heating it to 37° C., 0.01 ml of a 10 mM bilirubin solution was added to initiate the reaction. They were reacted at 37° C. for 10 minutes. After the reaction, 1.5 ml of 1% CPC (N-cetylpyridinium chloride) was added to terminate the reaction and the reaction mixture was subjected to the colorimetric analysis at 453 nm to determine its absorbance [S]. On the other hand, as a blank, a reaction mixture (1.44 ml) of the same type as the above-employed reaction mixture except for the exclusion of the enzyme solution was added with 0.01 ml of the bilirubin solution. The resultant mixture was incubated at 37° C. for 10 minutes precisely. Thereafter, 1.5 ml of 1% CPC and 0.05 ml of the bilirubin oxidase solution were added successively. The thus-prepared mixture was subjected to the colorimetric analysis at 453 nm to determine its absorbance [B]. The enzymatic activity is calculated in accordance with the following equation: [formula] wherein 1 unit (U) of the enzymatic activity is defined as the amount of enzyme which oxidizes 1 μmol of bilirubin per minute under the above-described conditions.

The target in experiment [2] is T1, bilirubin oxidase originated from Myrothecium (Prior Art Sample No. 3) (Albifimbria verrucaria, UniProt Q12737).
T1 sequence (Q12737 39-572): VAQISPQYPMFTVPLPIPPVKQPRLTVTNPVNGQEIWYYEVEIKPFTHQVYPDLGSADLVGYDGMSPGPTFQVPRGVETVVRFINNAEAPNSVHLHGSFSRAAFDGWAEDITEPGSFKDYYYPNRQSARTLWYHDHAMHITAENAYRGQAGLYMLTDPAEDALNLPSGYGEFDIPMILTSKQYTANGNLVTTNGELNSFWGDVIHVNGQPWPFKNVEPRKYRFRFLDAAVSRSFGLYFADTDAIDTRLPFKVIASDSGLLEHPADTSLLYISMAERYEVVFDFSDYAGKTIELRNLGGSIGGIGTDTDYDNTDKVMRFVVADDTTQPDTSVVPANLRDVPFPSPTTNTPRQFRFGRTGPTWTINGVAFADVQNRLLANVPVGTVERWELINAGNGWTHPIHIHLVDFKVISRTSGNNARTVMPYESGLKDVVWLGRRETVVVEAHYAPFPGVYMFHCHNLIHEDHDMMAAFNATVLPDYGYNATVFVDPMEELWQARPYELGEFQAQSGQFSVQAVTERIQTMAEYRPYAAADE
The settings on record: Prior Art Sample No. 3, originated from Myrothecium; substrate bilirubin; cited from earlier work.

As a reminder, the Km is the concentration of substrate that gives half-maximal velocity. With `C=CC1=C(C)/C(=C/c2[nH]c(Cc3[nH]c(/C=C4\NC(=O)C(C)=C4C=C)c(C)c3CCC(=O)O)c(CCC(=O)O)c2C)NC1=O` [Bilirubin], the Km in experiment [1] is 28.6 µM; in experiment [2], 190 µM.
